# Assay: Inhibition of Lysine Gingipain: The capacities of compounds of the present invention to inhibit the activity of lysine gingipain were measured in a fluorogenic assay similar to those described in Barret Biochemical Journal. 1980, 187(3), 909. The specific assay conditions were as follows. Buffer: pH=7.5, 100 mM Tris-HCl, 75 mM NaCl, 2.5 mM CaCl2, 10 mM cysteine, 1% DMSO after all additions. Protein: 0.1 nM Kgp, isolated from culture of Porphyromonas gingivalis, as described in Pike et al. J. Biol. Chem. 1994, 269(1), 406, and Potempa and Nguyen. Current Protocols in Protein Scienc. 2007, 21.20.1-21.20.27. Fluorogenic substrate: 10 uM Z-His-Glu-Lys-MCA. Time=90 minutes. Temperature=37° C. Each compound: 10 concentrations, starting at either 100 uM or 100 nM, with lower concentrations generated by serial 3-fold dilutions. By testing a range of concentrations for each compound, the concentration required to inhibit the activity of lysine gingipain by 50% (the “IC50”) was determined. Under the described assay conditions, signal-to-noise was excellent, and Z factor was greater than 0.6.
smiles,measurement,value
NCCCC[C@H](NC(=O)C1CCCC1)C(=O)c1ccccn1,IC50,> 250 nM

# — ChEMBL document CHEMBL5727813, “Inhibitors of lysine gingipain” (2020)
